# Experimental data: patent US20260200885A1, “BENZOPYRONE COMPOUNDS AS WELL AS PREPARATION METHOD THEREFOR AND USE THEREOF” (CHENGDU DI’AO JIUHONG PHARMACEUTICAL FACTORY, priority 2022, published 2026)
# Read-outs that look alike come from different tables or passages of the source.
# Assays:
# A2780 cells = assay: Determination of cell activity (CellTiter-Glo Luminescent Cell Viability Assay); assay type: cell-based; settings: Homo sapiens
# Experimental: To examine the effect of compounds on cell viability, ATP was directly quantified using the CellTiter-Glo Luminescent Cell Viability Assay (Promega) to determine the number of viable cells.
# Cell density was selected based on optimal signal intensity and growth curve for the inoculation of A2780 cells. The cells were incubated at 37° C. and 5% C02 overnight. Cells were treated with blank group, DMSO group and compound group, respectively, at 37° C. and 5% C02 for 7 days. The prepared solutions were added to cell wells according to the instructions of CellTiter-Glo (Promega), and shaken at a speed of 400 g for 2 min. Then, the solutions were centrifuged at 1000 g for 2 min and incubated at rest for 30 min to ensure a complete reaction. […] readings were taken using a multi-label microplate reader (Perkin Elmer) to calculate IC50 values.
# [1] = Pharmacokinetic assay in CD1 mice; assay type: in vivo; settings: for half-life: intragastric administration 5 mg/kg, Table I-3, read-out: T1/2 (h) for oral administration (converted)
# Experimental: pharmacokinetic assay of compounds was carried out in CD1 mice aged 6-8 weeks with IMT1B as a positive control. The compounds and the positive control were dissolved in 30% aqueous hydroxypropyl-β-cyclodextrin solution containing 25% PEG400 and administered via intravenous injection (1 mg/kg) or intragastric administration (5 mg/kg). Blood samples were collected at 0.033, 0.083, 0.25, 0.5, 1, 2, 4, 8, 24 h and 0.083, 0.25, 0.5, 1, 2, 4, 8, 24 h respectively after administration.
# The concentration of the compounds in plasma samples was analyzed using the LC-MS/MS method. Pharmacokinetic calculations were performed using WinNonlin (Phoenix™, version 8.3) or other similar software. The following pharmacokinetic parameters were calculated from the plasma concentration vs. time data: for intravenous administration: T1/2, C0, AUClast, AUCinf, MRTinf, Cl, Vss, regression coefficient, etc.; for oral administration: T1/2, Cmax, Tmax, AUClast, AUCinf, bioavailability, etc. The above parameter data were statistically calculated and described using descriptive statistics such as mean value and standard deviation.
# [2] = 168 h, A2780 cells, 7 days treatment, CellTiter-Glo, read-out: IC50
# [3] = mouse, plasma, po, 5 mg/kg, main pharmacokinetic parameters, Table I-4
SMILES,IC50 (A2780 cells; [2]) [nM],also measured
CC(Oc1ccc2c(-c3ccncc3)cc(=O)oc2c1)C(=O)N1CCCC(C#N)C1 (centres unmarked) [Compound A-1-2-6-24],> 1000,
CC(Oc1ccc2c(-c3ccc(F)cc3Cl)cc(=O)oc2c1)C(=O)c1cccc(C(N)=O)c1 (centres unmarked) [Compound A-1-2-1-36],20 to 100,
CC(Oc1ccc2c(-c3ccc(F)cc3Cl)cc(=O)oc2c1)C(=O)c1ccc2c(c1)OCO2 (centres unmarked) [Compound A-1-11-1-10],100 to 1000,
C[C@@H](Oc1ccc2c(-c3ccc(F)cc3Cl)cc(=O)oc2c1)C(=O)c1ccccc1C(=O)O [Compound A1-1-1],100 to 1000,
CC(Oc1ccc2c(-c3ccc(F)cc3Cl)cc(=O)oc2c1)C(=O)c1cc[nH]c1 (centres unmarked) [Compound A-1-10-1-5],< 20,
CC(Oc1ccc2c(-c3ccc(F)cc3Cl)cc(=O)oc2c1)C(=O)[C@@H]1CCCNC1 (some centres unmarked) [Compound A-1-8-1-2],100 to 1000,
Cc1ccccc1-c1cc(=O)oc2cc(OC(C)C(=O)c3cccc(C(=O)O)c3)ccc12 (centres unmarked) [Compound A-1-2-1-98],< 20,
CC(Oc1ccc2c(-c3ccc(F)cc3Cl)cc(=O)oc2c1)C(=O)c1ccc(N)cc1 (centres unmarked) [Compound A-1-2-1-78],< 20,
CC(Oc1ccc2c(-c3ccc(F)cc3Cl)cc(=O)oc2c1)C(=O)c1ccc[nH]1 (centres unmarked) [Compound A-1-10-1-4],100 to 1000,"half-life ([1]; mouse, plasma, po): 3.76 h"
CC(Oc1ccc2c(-c3ccc(F)cc3Cl)cc(=O)oc2c1)C(=O)c1ccc2[nH]ccc2c1 (centres unmarked) [Compound A-1-11-1-1],20 to 100,
COc1ccccc1-c1cc(=O)oc2cc(OC(C)C(=O)c3cccc(C(=O)O)c3)ccc12 (centres unmarked) [Compound A-1-2-1-8],100 to 1000,
COc1cccc(C(=O)C(C)Oc2ccc3c(-c4ccc(F)cc4Cl)cc(=O)oc3c2)c1 (centres unmarked) [Compound A-1-2-1-76],100 to 1000,
C[C@@H](Oc1ccc2c(-c3ccc(F)cc3Cl)cc(=O)oc2c1)C(=O)c1ccnc(C(=O)O)c1 [Compound A1-4-5],,"half-life ([1]; mouse, plasma, po): 9.73 h"
CNC(=O)c1cccc(C(=O)C(C)Oc2ccc3c(-c4ccc(F)cc4Cl)cc(=O)oc3c2)c1 (centres unmarked) [Compound A-1-2-1-35],20 to 100,
CC(Oc1ccc2c(-c3ccc(F)cc3Cl)cc(=O)oc2c1)C(=O)C12CC3CC(CC(C3)C1)C2 (centres unmarked) [Compound A-1-12-1-27],100 to 1000,
CC(Oc1ccc2c(-c3cccnc3)cc(=O)oc2c1)C(=O)N1CCCC(C#N)C1 (centres unmarked) [Compound A-1-2-6-23],> 1000,
C[C@H](Oc1ccc2c(-c3ccc(F)cc3Cl)cc(=O)oc2c1)C(=O)c1ccccc1C(=O)O [Compound A2-1-1],100 to 1000,"half-life ([1]; mouse, plasma, po): 3.54 h"
Cc1cccc(C(=O)C(C)Oc2ccc3c(-c4ccc(F)cc4Cl)cc(=O)oc3c2)c1 (centres unmarked) [Compound A-1-2-1-75],20 to 100,
CC(Oc1ccc2c(-c3ccc(F)cc3Cl)cc(=O)oc2c1)C(=O)C1CCN(C(=O)C(Cl)Cl)CC1 (centres unmarked) [Compound A-1-7-1-3],20 to 100,

SMILES,IC50 (A2780 cells; [2]) [nM],also measured
CC(Oc1ccc2c(-c3ccc(F)cc3Cl)cc(=O)oc2c1)C(=O)C1CCN(C)CC1 (centres unmarked) [Compound A-1-7-1-1],100 to 1000,
CC(Oc1ccc2c(-c3ccccc3Br)cc(=O)oc2c1)C(=O)c1cccc(C(=O)O)c1 (centres unmarked) [Compound A-1-2-1-3],20 to 100,
CC(Oc1ccc2c(-c3ccccc3F)cc(=O)oc2c1)C(=O)c1cccc(C(=O)O)c1 (centres unmarked) [Compound A-1-2-1-1],100 to 1000,
CC(Oc1ccc2c(-c3ccc(F)cc3Cl)cc(=O)oc2c1)C(=O)c1ccccc1 (centres unmarked) [Compound A-1-2-1-70],20 to 100,
CC(Oc1ccc2c(-c3ccc(F)cc3Cl)cc(=O)oc2c1)C(=O)c1ccc(O)cc1 (centres unmarked) [Compound A-1-2-1-82],< 20,
CC(Oc1ccc2c(-c3ccc(F)cc3Cl)cc(=O)oc2c1)C(=O)c1ccsc1 (centres unmarked) [Compound A-1-10-1-7],20 to 100,
CC(Oc1ccc2c(-c3ccc(F)cc3Cl)cc(=O)oc2c1)C(=O)[C@H]1CCCNC1 (some centres unmarked) [Compound A-1-8-1-1],100 to 1000,
C[C@H](Oc1ccc2c(-c3ccc(F)cc3Cl)cc(=O)oc2c1)C(=O)c1cccc(C(=O)O)c1 [Compound A2-1-5],20 to 100,"F ([1]; bioavailability, Table I-4): 137.555%; maximum plasma concentration Cmax compared with IMT1B ([1]; comparison in words): significantly superior to IMT1B; plasma exposure AUC compared with IMT1B ([1]; comparison in words): significantly superior to IMT1B; T1/2 ([1]; main pharmacokinetic parameters, Table I-4): 3.985 h; AUC(0-inf) [1, 3]: 9870 ng·h/mL; AUC(0-t) [1, 3]: 9740 ng·h/mL; Cmax ([1]; mouse, plasma, po, 5 mg/kg, main pharmacokinetic parameters, Table I-4, read-out: Cmax): 1060 ng/mL; half-life ([1]; mouse, plasma, po): 3.98 h"
CC(Oc1ccc2c(-c3ccc(F)cc3Cl)cc(=O)oc2c1)C(=O)c1ccncc1 (stereo not drawn) [α-13],20 to 100,"half-life ([1]; mouse, plasma, po): 6.91 h"
CC(Oc1ccc2c(-c3ccc(F)cc3Cl)cc(=O)oc2c1)C(=O)C1CCC(C(=O)[O-])CC1.[Na+] (stereo not drawn) [α-10],< 20,"half-life ([1]; mouse, plasma, po): 4.29 h"
CC(Oc1ccc2c(-c3ccc(F)cc3Cl)cc(=O)oc2c1)C(=O)C1CCNCC1 (stereo not drawn) [α-11],20 to 100,"half-life ([1]; mouse, plasma, po): 5.27 h"
CC(=O)Nc1ccc(C(=O)C(C)Oc2ccc3c(-c4ccc(F)cc4Cl)cc(=O)oc3c2)cc1 (centres unmarked) [Compound A-1-2-1-84],< 20,
CC(=O)Oc1ccc(C(=O)C(C)Oc2ccc3c(-c4ccc(F)cc4Cl)cc(=O)oc3c2)cc1 (centres unmarked) [Compound A-1-2-1-83],< 20,
CC(Oc1ccc2c(-c3ccc(F)cc3Cl)cc(=O)oc2c1)C(=O)c1ccc(N(C)C)cc1 (centres unmarked) [Compound A-1-2-1-80],20 to 100,
CC(=O)NCCc1ccc(C(=O)C(C)Oc2ccc3c(-c4ccc(F)cc4Cl)cc(=O)oc3c2)cc1 (centres unmarked) [Compound A-1-2-1-104],< 20,
Cc1cccc(-c2cc(=O)oc3cc(OC(C)C(=O)c4cccc(C(=O)O)c4)ccc23)c1 (centres unmarked) [Compound A-1-2-1-100],100 to 1000,
CCc1ccccc1-c1cc(=O)oc2cc(OC(C)C(=O)c3cccc(C(=O)O)c3)ccc12 (centres unmarked) [Compound A-1-2-1-101],100 to 1000,
CNc1ccc(C(=O)C(C)Oc2ccc3c(-c4ccc(F)cc4Cl)cc(=O)oc3c2)cc1 (centres unmarked) [Compound A-1-2-1-79],20 to 100,
C[C@@H](Oc1ccc2c(-c3ccc(F)cc3Cl)cc(=O)oc2c1)C(=O)c1ccc(C(=O)O)cc1 [Compound A1-1-9],,"half-life ([1]; mouse, plasma, po): 3.89 h"

SMILES,IC50 (A2780 cells; [2]) [nM],also measured
CC(Oc1ccc2c(-c3ccc(F)cc3Cl)cc(=O)oc2c1)C(=O)c1cccc(Br)c1 (centres unmarked) [Compound A-1-2-1-73],100 to 1000,
CC(Oc1ccc2c(-c3ccc(F)cc3Cl)cc(=O)oc2c1)C(=O)C1CCN(C2CC2)CC1 (centres unmarked) [Compound A-1-7-1-2],100 to 1000,"half-life ([1]; mouse, plasma, po): 3.78 h"
CC(Oc1ccc2c(-c3ccc(F)cc3Cl)cc(=O)oc2c1)C(=O)c1cc(F)c(O)c(F)c1 (centres unmarked) [Compound A-1-2-1-94],< 20,"half-life ([1]; mouse, plasma, po): 4.57 h"
CC(Oc1ccc2c(-c3ccc(F)cc3Cl)cc(=O)oc2c1)C(=O)c1cccc([N+](=O)[O-])c1 (centres unmarked) [Compound A-1-2-1-89],100 to 1000,
CC(Oc1ccc2c(-c3ccc(F)cc3Cl)cc(=O)oc2c1)C(=O)c1cccc(F)c1 (centres unmarked) [Compound A-1-2-1-71],20 to 100,
CC(Oc1ccc2c(-c3ccc(F)cc3Cl)cc(=O)oc2c1)C(=O)c1ccc2c(c1)OCCO2 (centres unmarked) [Compound A-1-11-1-13],100 to 1000,
C=Cc1ccccc1-c1cc(=O)oc2cc(OC(C)C(=O)c3cccc(C(=O)O)c3)ccc12 (centres unmarked) [Compound A-1-2-1-103],100 to 1000,
CC(Oc1ccc2c(-c3ccccc3Cl)cc(=O)oc2c1)C(=O)c1cccc(C(=O)O)c1 (centres unmarked) [Compound A-1-2-1-2],20 to 100,
CC(Oc1ccc2c(-c3ccc(F)cc3Cl)cc(=O)oc2c1)C(=O)C1CCNC1 (centres unmarked) [Compound A-1-10-1-35],100 to 1000,
CC(Oc1ccc2c(-c3ccc(F)cc3Cl)cc(=O)oc2c1)C(=O)C1CCN(CC(=O)O)CC1 (stereo not drawn) [α-12],,"IC50 (A2780 cells; A2780, 168 h): 100 to 1000 nM"
CC(Oc1ccc2c(-c3ccc(F)cc3Cl)cc(=O)oc2c1)C(=O)c1cccc(Cl)c1 (centres unmarked) [Compound A-1-2-1-72],100 to 1000,
CC(Oc1ccc2c(-c3ccc(F)cc3Cl)cc(=O)oc2c1)C(=O)c1ccoc1 (centres unmarked) [Compound A-1-10-1-6],20 to 100,
CC(Oc1ccc2c(C3CCCCC3)cc(=O)oc2c1)C(=O)c1cccc(C(=O)O)c1 (centres unmarked) [Compound A-1-2-6-2],100 to 1000,
CC(Oc1ccc2cc(-c3ccccc3)c(=O)oc2c1)C(=O)N1CCCC(C#N)C1 (centres unmarked) [Compound A-1-2-2-2],> 1000,
CC(Oc1ccc2c(-c3ccc(F)cc3Cl)cc(=O)oc2c1)C(=O)C1CCOCC1 (centres unmarked) [Compound A-1-10-1-39],< 20,
CC(Oc1ccc2c(-c3ccccc3)cc(=O)oc2c1)C(=O)c1cccc(C(=O)O)c1 (centres unmarked) [Compound A-1-2-1-99],100 to 1000,
CC(Oc1ccc2c(-c3ccc(F)cc3Cl)cc(=O)oc2c1)C(=O)c1cccc(C#N)c1 (centres unmarked) [Compound A-1-2-1-90],20 to 100,
CC(Oc1ccc2c(-c3ccc(F)cc3Cl)cc(=O)oc2c1)C(=O)C1CCN(CCO)CC1 (centres unmarked) [Compound A-1-7-1-4],100 to 1000,
